Data taken from the NIST ThermoML archive (doi:10.1016/j.jct.2013.10.013).
Numbers after ± are expanded uncertainties.

Columns and labels:
[1] = xn = mol fraction of the nth substance listed; conditions: 101 kPa, Liquid, Vibrating tube method
[2] = 283.15 K; 101 kPa; Liquid; Vibrating tube method

CC(C)COCCO [2-(2-methylpropoxy)ethanol] + O
mass density [kg/m3], [1]
Conditions | x1 = 0.000617 | x1 = 0.001164 | x1 = 0.001812 | x1 = 0.00198 | x1 = 0.003969 | x1 = 0.006759 | x1 = 0.009969 | x1 = 0.01319
283.15 K | 999.515 ± 0.2 | 999.412 ± 0.2 | 999.296 ± 0.2 | 999.307 ± 0.2 | 999.013 ± 0.2 | 998.702 ± 0.2 | 998.438 ± 0.2 | 998.199 ± 0.2
288.15 K | 998.897 ± 0.2 | 998.784 ± 0.2 | 998.655 ± 0.2 | 998.645 ± 0.2 | 998.299 ± 0.2 | 997.897 ± 0.2 | 997.523 ± 0.2 | 997.151 ± 0.2
293.15 K | 998.017 ± 0.2 | 997.888 ± 0.2 | 997.743 ± 0.2 | 997.724 ± 0.2 | 997.322 ± 0.2 | 996.836 ± 0.2 | 996.347 ± 0.2 | 995.851 ± 0.2
298.15 K | 996.846 ± 0.2 | 996.707 ± 0.2 | 996.548 ± 0.2 | 996.506 ± 0.2 | 996.06 ± 0.2 | 995.497 ± 0.2 | 994.904 ± 0.2 | 994.282 ± 0.2
303.15 K | 995.459 ± 0.2 | 995.292 ± 0.2 | 995.136 ± 0.2 | 995.092 ± 0.2 | 994.592 ± 0.2 | 993.958 ± 0.2 | 993.254 ± 0.2 | 992.505 ± 0.2

CCCCOCCO [2-butoxyethan-1-ol] + O
mass density [kg/m3], [1]
Conditions | x1 = 0.000906 | x1 = 0.001283 | x1 = 0.001685 | x1 = 0.001942 | x1 = 0.003834 | x1 = 0.006957 | x1 = 0.009993 | x1 = 0.01324
283.15 K | 999.515 ± 0.2 | 999.44 ± 0.2 | 999.376 ± 0.2 | 999.379 ± 0.2 | 999.137 ± 0.2 | 998.855 ± 0.2 | 998.677 ± 0.2 | 998.516 ± 0.2
288.15 K | 998.873 ± 0.2 | 998.804 ± 0.2 | 998.733 ± 0.2 | 998.742 ± 0.2 | 998.449 ± 0.2 | 998.058 ± 0.2 | 997.764 ± 0.2 | 997.453 ± 0.2
293.15 K | 997.98 ± 0.2 | 997.897 ± 0.2 | 997.814 ± 0.2 | 997.774 ± 0.2 | 997.436 ± 0.2 | 996.956 ± 0.2 | 996.553 ± 0.2 | 996.129 ± 0.2
298.15 K | 996.815 ± 0.2 | 996.726 ± 0.2 | 996.633 ± 0.2 | 996.592 ± 0.2 | 996.204 ± 0.2 | 995.629 ± 0.2 | 995.12 ± 0.2 | 994.56 ± 0.2
303.15 K | 995.386 ± 0.2 | 995.295 ± 0.2 | 995.201 ± 0.2 | 995.143 ± 0.2 | 994.715 ± 0.2 | 994.053 ± 0.2 | 993.447 ± 0.2 | 992.75 ± 0.2

CC(C)NCCO [2-isopropylaminoethanol] + O
mass density [kg/m3], [1]
Conditions | x1 = 0.00785 | x1 = 0.00993 | x1 = 0.0147 | x1 = 0.02052 | x1 = 0.02925 | x1 = 0.04009 | x1 = 0.04971 | x1 = 0.0589 | x1 = 0.06926 | x1 = 0.08132
283.15 K | 998.279 ± 0.2 | 997.915 ± 0.2 | 997.627 ± 0.2 | 997.186 ± 0.2 | 997.048 ± 0.2 | 997.046 ± 0.2 | 996.952 ± 0.2 | 996.873 ± 0.2 | 996.18 ± 0.2 | 994.687 ± 0.2
288.15 K | 997.569 ± 0.2 | 997.164 ± 0.2 | 996.747 ± 0.2 | 996.156 ± 0.2 | 995.726 ± 0.2 | 995.322 ± 0.2 | 994.86 ± 0.2 | 994.475 ± 0.2 | 993.417 ± 0.2 | 991.662 ± 0.2
293.15 K | 996.602 ± 0.2 | 996.129 ± 0.2 | 995.555 ± 0.2 | 994.798 ± 0.2 | 994.178 ± 0.2 | 993.399 ± 0.2 | 992.61 ± 0.2 | 991.925 ± 0.2 | 990.602 ± 0.2 | 988.598 ± 0.2
298.15 K | 995.343 ± 0.2 | 994.859 ± 0.2 | 994.252 ± 0.2 | 993.36 ± 0.2 | 992.43 ± 0.2 | 991.335 ± 0.2 | 990.229 ± 0.2 | 989.248 ± 0.2 | 987.663 ± 0.2 | 985.438 ± 0.2
303.15 K | 993.837 ± 0.2 | 993.31 ± 0.2 | 992.597 ± 0.2 | 991.578 ± 0.2 | 990.428 ± 0.2 | 989.011 ± 0.2 | 987.652 ± 0.2 | 986.463 ± 0.2 | 984.639 ± 0.2 | 982.2 ± 0.2

O [water]
Conditions | mass density [kg/m3]
[2] | 999.699 ± 0.2

O [water] + CC(C)COCCO
Conditions | mass density [kg/m3]
[1], 283.15 K, x2 = 0 | 999.699 ± 0.2

O [water] + CC(C)NCCO
Conditions | mass density [kg/m3]
[1], 283.15 K, x2 = 0 | 999.699 ± 0.2

O [water] + CCCCOCCO
Conditions | mass density [kg/m3]
[1], 283.15 K, x2 = 0 | 999.699 ± 0.2
